Laboratory results reported in patent publication US12662491B2 (Redona Therapeutics, Inc., priority 2020, dated 2026).

These compounds were tested against T1, Zcchc11 enzyme (Homo sapiens, UniProt Q5TAX3) (assay: TUTase assay (Zcchc11 assay, Lin28a-dependent polyuridylation of pre-let-7)). Conditions: LIN28A 10 nM, Zcchc11 0.2 nM, 5′-fluorescein pre-let-7 miRNA 2 nM, UTP 5 uM, room temperature, 30 minutes pre-incubation; read-out: Potency Lin28a-dep Z11 IC50.
T1 construct: made in house; host or cells: HEK293 cells (Zcchc11); E. coli Rosetta II (LIN28A)
T1 sequence (Q5TAX3 212-1420): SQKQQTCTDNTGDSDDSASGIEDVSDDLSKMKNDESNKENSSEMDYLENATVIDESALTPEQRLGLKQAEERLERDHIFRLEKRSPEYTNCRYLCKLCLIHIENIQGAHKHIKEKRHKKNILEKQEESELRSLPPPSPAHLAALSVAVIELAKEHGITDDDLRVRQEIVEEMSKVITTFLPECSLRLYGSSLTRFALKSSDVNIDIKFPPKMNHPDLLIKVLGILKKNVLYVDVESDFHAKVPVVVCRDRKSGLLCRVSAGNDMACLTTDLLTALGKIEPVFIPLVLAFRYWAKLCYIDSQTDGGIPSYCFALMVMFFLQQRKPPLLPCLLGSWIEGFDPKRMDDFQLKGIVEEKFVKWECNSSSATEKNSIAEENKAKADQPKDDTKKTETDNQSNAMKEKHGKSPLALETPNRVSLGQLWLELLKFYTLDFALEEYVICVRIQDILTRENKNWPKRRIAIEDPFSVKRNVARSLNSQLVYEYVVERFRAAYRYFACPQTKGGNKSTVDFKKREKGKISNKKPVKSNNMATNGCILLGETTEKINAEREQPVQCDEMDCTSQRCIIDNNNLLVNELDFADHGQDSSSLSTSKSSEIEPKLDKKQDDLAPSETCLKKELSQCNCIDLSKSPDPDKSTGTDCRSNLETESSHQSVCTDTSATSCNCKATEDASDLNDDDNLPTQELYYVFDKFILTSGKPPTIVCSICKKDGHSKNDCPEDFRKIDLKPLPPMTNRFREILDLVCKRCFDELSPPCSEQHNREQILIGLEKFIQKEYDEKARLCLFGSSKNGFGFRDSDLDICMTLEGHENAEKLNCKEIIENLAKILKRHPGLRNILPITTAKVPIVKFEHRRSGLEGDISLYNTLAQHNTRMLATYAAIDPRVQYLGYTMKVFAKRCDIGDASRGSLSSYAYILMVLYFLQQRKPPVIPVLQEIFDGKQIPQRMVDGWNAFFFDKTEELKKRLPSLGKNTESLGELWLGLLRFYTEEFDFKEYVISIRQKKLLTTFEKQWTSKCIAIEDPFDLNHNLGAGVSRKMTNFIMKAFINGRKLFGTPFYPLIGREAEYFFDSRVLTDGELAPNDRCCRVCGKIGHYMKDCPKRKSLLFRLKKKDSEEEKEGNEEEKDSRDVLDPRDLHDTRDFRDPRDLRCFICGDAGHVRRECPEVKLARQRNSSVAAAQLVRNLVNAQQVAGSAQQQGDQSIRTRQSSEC
Assay type: biochemical
Outline: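 HEK293-expressed human Zcchc11 (residues 212-1420, 0.2 nM) with 10 nM LIN28A and 2 nM 5′-fluorescein pre-let-7, preincubated 30 min at room temperature, pH 7.3. Started with 5 uM UTP; poly(U) tails quenched by 3′-rhodamine A20 probe, read kinetically. IC50 from early-rate four-parameter fit; no-UTP wells define 0%.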

IC50 [nM] | Compound
≤ 1000 | COc1ccc(Cl)c(OC[C@H]2C[C@@H]3C[C@@H]3N2c2cc3c(cc2F)c(=O)c(C(=O)O)cn3-c2ccc(N3CC(N(C)C)C3)nc2)n1 [Example 70, 7-[(3R)-3-{[(3-chloro-6-methoxypyridin-2-yl)oxy]methyl}-2-azabicyclo[3.1.0]hexan-2-yl]-1-{6-[3-(dimethylamino)azetidin-1-yl]pyridin-3-yl}-6-fluoro-4-oxo-1,4-dihydroquinoline-3-carboxylic acid]

Same assay, conditions: Lin28a-dependent Zcchc11 (Z11) TUTase activity; read-out: Potency Lin28a-dep Z11 IC50

Compound | IC50 [nM]
COc1ccc(COc2ccc(-n3cc(C(=O)O)c(=O)c4cc(F)c(N5CCC[C@@H]5COc5ncccn5)cc43)c(F)c2)cc1 [Compound 137, (R)-6-fluoro-1-(2-fluoro-4-((4-methoxy-benzyl)oxy)phenyl)-4-oxo-7-(2-((pyrimidin-2-yloxy)methyl)pyrrolidin-1-yl)-1,4-dihydro-quinoline-3-carboxylic acid] | ≤ 1000
COc1ccc(F)c(OC[C@H]2C[C@H]3C[C@H]3N2c2cc3c(cc2Cl)c(=O)c(C(=O)O)cn3-c2ccnc(N)c2)n1 [Compound 342, 1-(2-Aminopyridin-4-yl)-6-chloro-7-[(1R,3R,5R)-3-{[(3-fluoro-6-methoxy-pyridin-2-yl)oxy]methyl}-2-azabicyclo [3.1.0]hexan-2-yl]-4-oxoquinoline-3-carboxylic acid] | ≤ 1000
Cn1cc(Cn2cc(C(=O)O)c(=O)c3cc(Cl)c(N4CCC[C@@H]4COc4ncccc4Cl)cc32)cn1 [Compound 252, 6-chloro-7-[(2R)-2-[[(3-chloropyridin-2-yl)oxy]methyl]pyrrolidin-1-yl]-1-[(1-methyl-pyrazol-4-yl)methyl]-4-oxoquinoline-3-carboxylic acid] | ≤ 1000
COc1ccc(Cl)c(OC[C@H]2C[C@H]3C[C@H]3N2c2cc3c(cc2F)c(=O)c(C(=O)O)cn3-c2ccc(N3CC(N(C)C)C3)nc2)n1 (racemic) [Compound 234, Rac-7-((1R,3R,5R)-3-(((3-chloro-6-methoxy-pyridin-2-yl)oxy)methyl)-2-azabicyclo [3.1.0]hexan-2-yl)-1-(6-(3-(dimethyl-amino)azetidin-1-yl)pyridin-3-yl)-6-fluoro-4-oxo-1,4-dihydro-quinoline-3-carboxylic acid] | ≤ 1000
rac-6- chloro-7- ((2R,3S)-2- (((3- chloropyridin- 2- yl)oxy) methyl)-3- methyl- pyrrolidin-1- yl)-1-(6-(3- (dimethyl- amino) azetidin-1- yl)pyridin- 3-yl)-4- oxo-1,4- dihydro- quinoline-3- carboxylic acic [Compound 260] | ≤ 1000
Nc1ccc(-n2cc(C(=O)O)c(=O)c3cc(F)c(N4CCC[C@@H]4COc4ncccc4Cl)cc32)cn1 [Compound 317, 1-(6-Aminopyridin-3-yl)-7-[(2R)-2-[[(3-chloropyridin-2-yl)oxy]methyl]pyrrolidin-1-yl]-6-fluoro-4-oxoquinoline-3-carboxylic acid] | ≤ 1000

Second part, the compound after the results:

IC50 [nM] | Compound
≤ 1000 | COc1ccc(Cl)c(OC[C@H]2C[C@@H]3C[C@@H]3N2c2cc3c(cc2F)c(=O)c(C(=O)O)cn3-c2ccc(N3CC(N(C)C)C3)nc2)n1 [Compound 201, 7-((1S,3R,5S)-3-(((3-chloro-6-methoxy-pyridin-2-yl)oxy)methyl)-2-azabicyclo [3.1.0]hexan-2-yl)-1-(6-(3-(dimethyl-amino)azetidin-1-yl)pyridin-3-yl)-6-fluoro-4-oxo-1,4-dihydro-quinoline-3-carboxylic acid]
≤ 1000 | CN(C)C1CN(c2ccc(-n3cc(C(=O)O)c(=O)c4cc(Cl)c(N5CC(c6cn(C)cn6)C[C@@H]5COc5ncccc5Cl)cc43)cn2)C1 (stereo partly drawn) [Compound 276, 6-chloro-7-((2R)-2-(((3-chloropyridin-2-yl)oxy)methyl)-4-(1-methyl-1H-imidazol-4-yl)pyrrolidin-1-yl)-1-(6-(3-(dimethyl-amino)azetidin-1-yl)pyridin-3-yl)-4-oxo-1,4-dihydro-quinoline-3-carboxylic acid]
≤ 1000 | COc1ccc(Cl)c(OC[C@H]2CC(C(C)C)CN2c2cc3c(cc2Cl)c(=O)c(C(=O)O)cn3-c2ccc(N3CC(N(C)C)C3)nc2)n1 (mixture of isomers) [Compound 227, Rac-6-chloro-7-((2R)-2-(((3-chloro-6-(11-oxidaneyl)pyridin-2-yl)oxy)methyl)-4-isopropyl-pyrrolidin-1-yl)-1-(6-(3-(dimethyl-amino)azetidin-1-yl)pyridin-3-yl)-4-oxo-1,4-dihydro-quinoline-3-carboxylic acid]
≤ 1000 | COc1ccc(Cl)c(OC[C@H]2C[C@H]3C[C@H]3N2c2cc3c(cc2Cl)c(=O)c(C(=O)O)cn3-c2ccc(N(C)C)nc2)n1 [Compound 341, 6-Chloro-7-[(1R,3R,5R)-3-{[(3-chloro-6-methoxy-pyridin-2 yl)oxy]methyl}-2-azabicyclo [3.1.0]hexan-2-yl]-1-[6-(dimethyl-amino)pyridin-3-yl]-4-oxoquinoline-3-carboxylic acid]
1000 to 10000 | O=C(O)c1cn(C2CC2)c2c(F)c(N3CCC[C@@H]3COc3ccccn3)c(F)cc2c1=O [Compound 79, (R)-1-cyclopropyl-6,8-difluoro-4-oxo-7-(2-((pyridin-2-yloxy)methyl)pyrrolidin-1-yl)-1,4-dihydro-quinoline-3-carboxylic acid]
≤ 1000 | Cc1cccnc1OC[C@H]1CCCN1c1cc2c(cc1F)c(=O)c(C(=O)O)cn2-c1ccc(N)nc1 [Compound 208, (R)-1-(6-aminopyridin-3-yl)-6-fluoro-7-(2-(((3-methylpyridin-2-yl)oxy)methyl)pyrrolidin-1-yl)-4-oxo-1,4-dihydro-quinoline-3-carboxylic acid]

Same assay, conditions: Lin28a-dependent Zcchc11 (Z11) TUTase assay; read-out: Potency Lin28a-dep Z11 IC50

IC50 [nM] | Compound
≤ 1000 | CN(C)C1CN(c2ccc(-n3cc(C(=O)O)c(=O)c4cc(Cl)c(N5CCC[C@@H]5COc5ncco5)cc43)cn2)C1 [Example 587, (R)-6-chloro-1-(6-(3-(dimethylamino)azetidin-1-yl)pyridin-3-yl)-7-(2-((oxazol-2-yloxy)methyl)pyrrolidin-1-yl)-4-oxo-1,4-dihydroquinoline-3-carboxylic acid]
1000 to 10000 | Cc1cccnc1OC[C@H]1CCCN1c1cc2c(cc1Cl)c(=O)c(C(=O)O)cn2C1CN(C)C1 [Example 458, (R)-6-chloro-1-(1-methylazetidin-3-yl)-7-(2-(((3-methylpyridin-2-yl)oxy)methyl)pyrrolidin-1-yl)-4-oxo-1,4-dihydroquinoline-3-carboxylic acid]
≤ 1000 | CCc1cc2c(=O)c(C(=O)O)cn(-c3ccc(N4CC(N(C)C)C4)nc3)c2cc1N1CCC[C@@H]1COc1ncccc1Cl [Example 546, (R)-7-(2-(((3-chloropyridin-2-yl)oxy)methyl)pyrrolidin-1-yl)-1-(6-(3-(dimethylamino)azetidin-1-yl)pyridin-3-yl)-6-ethyl-4-oxo-1,4-dihydroquinoline-3-carboxylic acid]
≤ 1000 | COc1ccc(Cl)c(OC[C@H]2CC(C)(C)CN2c2cc3c(cc2Cl)c(=O)c(C(=O)O)cn3-c2ccnc(N)c2)n1 [Example 650, (R)-1-(2-aminopyridin-4-yl)-6-chloro-7-(2-(((3-chloro-6-methoxypyridin-2-yl)oxy)methyl)-4,4-dimethylpyrrolidin-1-yl)-4-oxo-1,4-dihydroquinoline-3-carboxylic acid]
≤ 1000 | [N-]=[N+]=Nc1ccc(-n2cc(C(=O)O)c(=O)c3cc(Cl)c(N4CCC[C@@H]4COc4ncccc4Cl)cc32)cn1 [Example 631, (R)-1-(6-azidopyridin-3-yl)-6-chloro-7-(2-(((3-chloropyridin-2-yl)oxy)methyl)pyrrolidin-1-yl)-4-oxo-1,4-dihydroquinoline-3-carboxylic acid]
